The values below come from article PMC5655031, “A Linear 19-Mer Plant Defensin-Derived Peptide Acts Synergistically with Caspofungin against Candida albicans Biofilms” (Frontiers in Microbiology, 2017).

Like-named read-outs stand apart in the source and are kept apart here. Numbered stars: 1 amine (or outer) side, 2 acyl side, 3 side chain; on linkers, the order of the positions; unused ones are H or OH. Bridge positions count the residues as written; N and C are the ends. Square brackets hold non-standard residues; d marks the D form. Ends that are not written are not given here. Peptide text beside a SMILES is read from it. * marks the point of attachment. hTyr(3S-OH,4S-OH,3'-OSO3H) = N[C@H](C(=O)O)[C@H](O)[C@@H](O)c1ccc(O)c(OS(=O)(=O)O)c1; pTerphenylCO(4''-OnC5H11) = CCCCCOc1ccc(-c2ccc(-c3ccc(C(=O)*)cc3)cc2)cc1; Orn(4R-OH,5R-OH) = O=C([C@H](C[C@@H](O)[C@@H](O)N[*:3])N[*:1])[*:2]; hTyr(3S-OH,4S-OH) = N[C@H](C(=O)O)[C@H](O)[C@@H](O)c1ccc(O)cc1; Pro(3S-OH,4S-Me) = C[C@H]1CN[C@H](C(=O)O)[C@H]1O; X1 = CCCCCOc1ccc(-c2cc(-c3ccc(C(=O)*)cc3)no2)cc1; Gln(3R-OH) = NC(=O)C[C@@H](O)[C@H](N)C(=O)O; Hyp = O=C(O)[C@@H]1C[C@@H](O)CN1; Abu = CC[C@H](N)C(=O)O

Data set [1] has as its system Candida albicans biofilms. Kind of data set: microbe, parasite or virus in culture.
Data set [2] has as its system C. albicans caspofungin-resistant mutant M177 (fks1 mutant) biofilms. Kind of data set: microbe, parasite or virus in culture. The settings on record: Candida albicans, read-out: BIC50 (CASPO) ± SEM.
Data set [3] has as its system planktonic C. albicans SC5314 WT cells. The data set can be described thus: Flow cytometry: HsLin06_18-FITC uptake and membrane permeabilization (PI). Conditions: 0.01 μM caspofungin alone; vs t0. The data set is classed as cell-based, Candida albicans. As for the experimental part:
(§1) Membrane permeabilization and HsLin06_18 internalization were determined via flow cytometric analysis on planktonic C. albicans SC5314 WT cells. Exponentially growing cells were exposed to caspofungin ([…]), HsLin06_18-FITC (4.6 μM) or its combination (as described in the material and methods section “fungicidal activity assay”), and to propidium iodide (PI) (2 μg/mL), after which they were subjected to flow cytometry on a BD Influx™ cell sorter. Per treatment, 10,000 cells were monitored for fluorescence at 530/40 nm (FL2_λex = 488 nm) and 610/20 nm (FL11_ λex = 561 nm) for the detection of HsLin06_18-FITC internalization (FITC+) and membrane permeabilization (PI+), respectively. Data from cells treated with 4.6 μM HsLin06_18-FITC were used as background signal.
On the technique in general: A flow cytometer gives signals particle by particle.

The subject of another data set is Candida krusei biofilms. The data set can be described thus: In vitro biofilm inhibition assay in microtiter plates (XTT quantification). Conditions: Pichia kudriavzevii, caspofungin alone, n = 3, read-out: BIC50 (CASPO) ± SEM. The data set is classed as cell-based. (In general: Formazan colour is commonly taken as a measure of viable cells.)
Data set [4] relates to C. albicans SC5314 WT planktonic cells. Kind of data set: Fungicidal activity assay (plating, CFU) on planktonic cells. The data set is classed as cell-based, Candida albicans. The settings on record: caspofungin alone, concentrations up to 50 μM, one representative experiment out of 2. The protocol:
[…] Both at the start and at all measuring points, surviving yeast cells was determined via plating assays. In a plating assay, 10-fold dilution series of yeast cells in PBS were prepared, after which 100 μL was plated on YPD plates. After 1 day of incubation at 37°C, the number of colony forming units (CFU) was counted and cell death was calculated relative to time zero (t0). MFC50 values, indicating the minimum fungicidal concentration resulting in 50% cell death, were determined. In parallel with the plating assay, confocal microscopic or flow cytometric analysis were performed on the samples.

Data set [5] deals with Candida albicans biofilms. The data set can be described thus: In vitro biofilm inhibition assay in microtiter plates (XTT quantification). The data set is classed as cell-based. The settings on record: caspofungin alone, n = 3, read-out: BIC50 (CASPO) ± SEM.
For data set [6], the system named is C. albicans biofilms on serum pre-incubated polyurethane catheters. Kind of data set: In vitro biofilm inhibition assay on catheters. The data set is classed as cell-based, Candida albicans. Conditions: 24 h treatment; CFU. As for the experimental part: Polyurethane catheters, overnight incubated in bovine serum, were infected with C. albicans or C. glabrata cells (5 × 10^4 cells/mL) in RPMI medium (Kucharikova et al., [2015]). […] All experiments were performed in quadruplicate with at least three biological repeats.

Data set [7] deals with Candida glabrata biofilms. The data set can be described thus: In vitro biofilm inhibition assay in microtiter plates (XTT quantification). The data set is classed as cell-based. Conditions: Nakaseomyces glabratus, caspofungin alone, n = 3, read-out: BIC50 (CASPO) ± SEM.
Data set [8] relates to planktonic Candida albicans fks1 mutant cells. The data set can be described thus: Flow cytometry: HsLin06_18-FITC uptake and membrane permeabilization (PI), fks1 mutant. The data set is classed as cell-based. The settings on record: caspofungin (0.5 μM) alone; 40 minutes; n = 3. As for the experimental part:
as §1
[picture] Supplementary Figure S3: HsLin06_18-FITC uptake and membrane permeabilization in planktonic Candida albicans WT and fks1 mutant cells, determined via flow cytometry. Cells were treated for 40 minutes with 0.5 µM caspofungin and/or […] HsLin06_18-FITC (HsL-F) and 2 µg/mL propidium iodide (PI). […]

Data set [9] deals with C. albicans biofilms on catheter pieces. Kind of data set: In vivo biofilm inhibition assay, subcutaneous rat catheter model. Conditions: intravenously (IV) administered, once daily for 7 days; CFU.
Protocol: All animal experiments were in accordance with the KU Leuven animal care guidelines and approved by the Ethical Committee of the KU Leuven (P069/2016). In vivo C. albicans biofilms were formed inside catheter pieces in immunosuppressed female Sprague–Dawley rats (200 g) as described previously (Ricicova et al., [2010]). Briefly, serum pre-incubated catheters were infected with C. albicans cells (5 × 10^4 cells/mL) prepared in RPMI medium during the adhesion period (90 min at 37°C). After a washing step, 9 catheter pieces were implanted into the back area of one rat. Inhibition of in vivo C. albicans biofilm formation was initiated immediately after the implant. […] Catheters were explanted from euthanized animals and the number of cells per individual biofilm was determined by CFU (Ricicova et al., [2010]). In vivo experiments were performed once (in total three animals/group).
Data set [10] concerns Candida dubliniensis biofilms. Kind of data set: In vitro biofilm inhibition assay in microtiter plates (XTT quantification). The data set is classed as cell-based. The settings on record: caspofungin alone, n = 3, read-out: BIC50 (CASPO) ± SEM.
The test system of data set [11] is C. albicans caspofungin-resistant mutant M177 (fks1 mutant) biofilms. The settings on record: fks1 mut.
The nature of data set [12]: HsLin06_18 cytotoxicity assay (MTT). The data set is classed as cell-based. Conditions: human, 24 h treatment, relative to 1% DMSO control, read-out: EC50 (half maximal effective concentration), cytotoxicity. The protocol: Drug cytotoxicity testing was performed as described previously (Vriens et al., [2015b]). Briefly, human hepatoma (HepG2) cells were treated for 24 h with caspofungin, HsLin06_18, its combination or control treatment (1% DMSO). Cell viability was determined by MTT staining (Roche Diagnostics, Germany) and expressed relative to the control treatment. All experiments were performed in quadruplicate with at least three biological repeats.

Data set [13] concerns Candida albicans biofilms. The settings on record: Caspofungin + HsLin; microtiter plate; means for n ≥ 2.
The next data set concerns candidiasis. The settings on record: administered systemically at 7 or 14 mg/kg/day; ref Tavares et al., 2008; cited from earlier work.
The mark [14] stands for this setting: read-out: BIC50 (echinocandin) ± SEM.

Regarding `CCCCCOc1ccc(-c2ccc(-c3ccc(C(=O)N[C@H]4C[C@@H](O)[C@@H](O)NC(=O)[C@@H]5[C@@H](O)[C@@H](C)CN5C(=O)[C@H]([C@@H](C)O)NC(=O)[C@H]([C@H](O)[C@@H](O)c5ccc(O)cc5)NC(=O)[C@@H]5C[C@@H](O)CN5C(=O)[C@H]([C@@H](C)O)NC4=O)cc3)cc2)cc1` [Anidulafungin] ({pTerphenylCO(4''-OnC5H11)}-[Orn(4R-OH,5R-OH)]T[Hyp][hTyr(3S-OH,4S-OH)]T[Pro(3S-OH,4S-Me)]; lactam 1-C), the IC50 in data set [1] (setting [14]) worked out at 930 ± 120 nM.
Regarding `CC[C@H](C)C[C@H](C)CCCCCCCCC(=O)N[C@H]1C[C@@H](O)[C@@H](NCCN)NC(=O)[C@@H]2[C@@H](O)CCN2C(=O)[C@H]([C@H](O)CCN)NC(=O)[C@H]([C@H](O)[C@@H](O)c2ccc(O)cc2)NC(=O)[C@@H]2C[C@@H](O)CN2C(=O)[C@H]([C@@H](C)O)NC1=O` [Caspofungin], the IC50 in data set [1] (read-out: BIC50 (CASPO) ± SEM) amounted to 830 ± 96 nM; in data set [1] (setting [14]), 960 ± 40 nM; in [2], 7400 ± 1360 nM; in the data set with Candida krusei biofilms, 1090 ± 12 nM; in [5], 700 ± 92 nM; in [7] it was 1000 ± 115 nM. Further, the IC50 in [10] is 920 ± 17 nM. Further, the “population of cells with compromised membranes” value in data set [3] is “not significantly increased after 40 min”. Also, the cell death in data set [4] stood at 30%. Moreover, in [6], the “sub-lethal dose in the in vitro catheter setup” value stood at 0.4 µM. Moreover, in [8], the “cells with permeabilized membranes” value is below 0.2%. The “sub-lethal dose in the subcutaneous rat catheter model” value in data set [9] was found to be 0.25 mg/kg/day.
As for `CC[C@H](NC(=O)[C@H](C)NC(=O)CNC(=O)CNC(=O)[C@H](Cc1ccc(O)cc1)NC(=O)[C@H](C)NC(=O)[C@@H](N)Cc1ccccc1)C(=O)N[C@@H](Cc1c[nH]cn1)C(=O)N[C@@H](Cc1ccc(O)cc1)C(=O)N[C@@H](CCC(N)=O)C(=O)N[C@@H](Cc1ccccc1)C(=O)N1CCC[C@H]1C(=O)N[C@@H](CO)C(=O)N[C@H](C(=O)N[C@@H](CCCCN)C(=O)N[C@@H](CC)C(=O)N[C@@H](Cc1ccccc1)C(=O)N[C@@H](CC)C(=O)N[C@@H](CCCCN)C(=O)O)C(C)C` [HsLin06_18] (H-FAYGGA[Abu]HYQFPSVK[Abu]F[Abu]K-OH), the FICI in [11] (caspofungin + 2.5 µM HsLin06_18) and in [11] (caspofungin + 5 µM HsLin06_18) was below 0.5 each time. Moreover, in data set [12], the EC50 at 24 h was above 50000 nM.
In the case of `CCCCCOc1ccc(-c2cc(-c3ccc(C(=O)N[C@H]4C[C@@H](O)[C@@H](O)NC(=O)[C@@H]5[C@@H](O)[C@@H](C)CN5C(=O)[C@H]([C@H](O)CC(N)=O)NC(=O)[C@H]([C@H](O)[C@@H](O)c5ccc(O)c(OS(=O)(=O)O)c5)NC(=O)[C@@H]5C[C@@H](O)CN5C(=O)[C@H]([C@@H](C)O)NC4=O)cc3)no2)cc1` [Micafungin] (X1-[Orn(4R-OH,5R-OH)]T[Hyp][hTyr(3S-OH,4S-OH,3'-OSO3H)][Gln(3R-OH)][Pro(3S-OH,4S-Me)]; lactam 1-C), in data set [1] (setting [14]), the IC50 was determined as 400 ± 88 nM.
As to “FAYGGACHYQFPSVKCFXK (disulfide) [HsLin06_18_22]”, the “Fold change (reduction of the BIC50 of caspofungin by co-incubation with HsLin06_18 or HsLin06_18-variants)” value in data set [13] is on record as 1.77.
“FAYGGACHYQFPSVKXFCK (disulfide) [HsLin06_18_20]”: the “Fold change (reduction of the BIC50 of caspofungin by co-incubation with HsLin06_18 or HsLin06_18-variants)” value in data set [13] is on record as 1.97.
“RsAFP2: plant defensin (QKLCQRPSGTWSGVCGNNNACKNQCIRLEKARHGSCNYVFPAHKCICYFPC; ends and bridges not checked; cysteine pairing not given here; UniProt P30230 30-80, looked up)”: the “in vivo efficacy against candidiasis” value in the data set with candidiasis is listed as “prophylactically effective”.
